From patent publication US20020161528A1, “Tool for lipophilicity determination in drug discovery basic and neutral compounds” (Pfizer Inc., priority 2001, published 2002)
Where a name gives a salt, the structure may show the parent alone. Read-outs that look alike come from different tables or passages of the source.

Legend:
[1] = for log k′w / ElogDoct: pH 7.4
physchem = conditions: pH 7.4
[2] = pH 7.4, cited from earlier work
[3] = Table 1, capacity factor extrapolated to 0% methanol, average of three to five determinations
[4] = Table 1, average of literature references only
[5] = Table 1, from log k′w by Equation 1

With `CN(C)CCCN1c2ccccc2Sc2ccc(Cl)cc21` [Chlorpromazine] the “log k′w” value [1, 3] was 2.66 and the chromatographic logD (physchem) was 3.2.
For `NC(=O)N1c2ccccc2C=Cc2ccccc21` [Carbamazepine], the “log k′w” value [1, 3] is given as 1.40 and the logDoct [2, 4] is given as 2.19.
In the case of `CC/C(=C(/CC)c1ccc(O)cc1)c1ccc(O)cc1` [Diethylstilbestrol], the “log k′w” value [1, 3] is given as 4.12, the chromatographic logD (physchem) is given as 4.85 and the logDoct [2, 4] is given as 5.07.
In the case of `Cc1nc2n(c(=O)c1CCN1CCC(c3noc4cc(F)ccc34)CC1)CCCC2` [Risperidone], the “Res (logDoct − ElogDoct)” value ([1]; Table 1) is reported as 0.45, the “log k′w” value [1, 3] is reported as 1.23 and the chromatographic logD (physchem) is reported as 1.59.
With `CCN(CC)CCNC(=O)c1ccc(N)cc1` [Procainamide] the “log k′w” value [1, 3] was −0.69 and the chromatographic logD (physchem) was -0.57.
With `CCOC(=O)N1CCC(=C2c3ccc(Cl)cc3CCc3cccnc32)CC1` [Loratadine] the “log k′w” value [1, 3] was 4.02.
For `CN1CCN(C2=Nc3cc(Cl)ccc3Nc3ccccc32)CC1` [Clozapine], the chromatographic logD (physchem) was 3.38.
With `CN(C)CCCN1c2ccccc2CCc2ccccc21` [Imipramine] the “log k′w” value [1, 3] was 1.56.
With `Oc1cccc(Cl)c1` [3-Chlorophenol] the “Res (logDoct − ElogDoct)” value ([1]; Table 1) was −0.61, the “log k′w” value [1, 3] was 2.58 and the chromatographic logD (physchem) was 3.11.
For `Oc1cc(Cl)cc(Cl)c1` [3,5-Dichiorophenol], the “Res (logDoct − ElogDoct)” value ([1]; Table 1) was −0.40, the “log k′w” value [1, 3] was 3.44 and the ElogDoct [1] was 4.08. The logDoct [2] was 3.68.
For `C[C@@H]1C[C@H]2[C@@H]3CCC4=CC(=O)C=C[C@]4(C)[C@@]3(F)[C@@H](O)C[C@]2(C)[C@@]1(O)C(=O)CO` [Dexamethasone], the chromatographic logD (physchem) is given as 2.03 and the logDoct [2, 4] is given as 1.83.
For `CN1C(=O)CN=C(c2ccccc2)c2cc(Cl)ccc21` [Diazepam], the “log k′w” value [1] was 2.46.
For `Cc1cccc(N(C)C(=S)Oc2ccc3ccccc3c2)c1` [Tolnaftate], the “log k′w” value [1, 3] was 4.53.
In the case of `Clc1ccccc1C(c1ccccc1)(c1ccccc1)n1ccnc1` [Clotrimazole], the “log k′w” value [1, 3] is reported as 4.03 and the chromatographic logD (physchem) is reported as 4.75.
In the case of `c1ccc2ccccc2c1` [Naphthalene], the “log k′w” value [1, 3] is reported as 3.03 and the chromatographic logD (physchem) is reported as 3.62.
With `CC(=O)Nc1ccc(O)cc1` [Acetominophen] the “Res (logDoct − ElogDoct)” value ([1]; Table 1) was 0.13, the “log k′w” value [1, 3] was 0.15 and the ElogDoct [1, 5] was 0.38.
In the case of `C=CCc1ccccc1OCC(O)CNC(C)C` (stereo not shown) [Alprenolol], the “log k′w” value [1, 3] is reported as 0.37 and the chromatographic logD (physchem) is reported as 0.62.
For `CC(C)(C)NCC(O)c1cc(O)cc(O)c1` (stereo not shown) [Terbutaline sulfate], the “log k′w” value [1, 3] is given as −1.51, the chromatographic logD (physchem) is given as -1.49 and the logDoct [2, 4] is given as −1.35.
`COc1ccc2[nH]c([S+]([O-])Cc3ncc(C)c(OC)c3C)nc2c1` (stereo not shown) [Omeprazole] gave a chromatographic logD (physchem) of 2.
For `C[C@]12CC[C@H]3[C@@H](CCC4=CC(=O)CC[C@@]43C)[C@@H]1CC[C@@H]2O` [Testosterone], the “Res (logDoct − ElogDoct)” value ([1]; Table 1) was 0.12, the “log k′w” value [1, 3] was 2.63 and the ElogDoct [1] was 3.17. For the same molecule, the logDoct [2, 4] was 3.29.
In the case of `CN(C)CCC(c1ccc(Cl)cc1)c1ccccn1` (stereo not shown) [Chlorpheniramine], the “log k′w” value [1, 3] is reported as 1.20.
For `CCOC(=O)C1=C(COCCN)NC(C)=C(C(=O)OC)C1c1ccccc1Cl` (stereo not shown) [Amlodipine], the chromatographic logD (physchem) was 2.15.
With `CSc1ncnc2c1ncn2[C@@H]1O[C@H](CO)[C@@H](O)[C@H]1O` [Methylthioinosine] the “Res (logDoct − ElogDoct)” value ([1]; Table 1) was −0.40, the “log k′w” value [1, 3] was 0.25 and the ElogDoct [1, 5] was 0.49. The logDoct [2] was 0.09.
With `CC(=O)OCC(=O)[C@@]1(O)CC[C@H]2[C@@H]3CCC4=CC(=O)CC[C@]4(C)[C@H]3[C@@H](O)C[C@@]21C` [Hydrocortisone-21 acetate] the “Res (logDoct − ElogDoct)” value ([1]; Table 1) was 0.13, the “log k′w” value [1, 3] was 1.64 and the ElogDoct [1, 5] was 2.06. For the same molecule, the logDoct [2] was 2.19.
Work on `C[C@]12CC[C@@H]3c4ccc(O)cc4CC[C@H]3[C@@H]1CC[C@@H]2O` [Estradiol] yielded a chromatographic logD (physchem) of 3.9.
With `CC(=O)c1ccccc1` [Acetophenone] the “log k′w” value [1, 3] was 1.21 and the chromatographic logD (physchem) was 1.57.
In the case of `CC(C)NCC(O)c1ccc(NS(C)(=O)=O)cc1` (stereo not shown) [Sotalol], the “log k′w” value [1, 3] is reported as −1.47 and the chromatographic logD (physchem) is reported as -1.45.
With `CN1CC[C@]23c4c5ccc(O)c4O[C@H]2[C@@H](O)C=C[C@H]3[C@H]1C5.O=S(=O)(O)O` [Morphine sulfate] the “log k′w” value [1] was 0.10.
With `O=C(NCC1CCCCN1)c1cc(OCC(F)(F)F)ccc1OCC(F)(F)F` (stereo not shown) [Flecainide] the “log k′w” value [1, 3] was 0.25 and the chromatographic logD (physchem) was 0.49.
With `NS(=O)(=O)c1cc(C2(O)NC(=O)c3ccccc32)ccc1Cl` (stereo not shown) [Chlorthalidone] the “log k′w” value [1, 3] was 0.76 and the chromatographic logD (physchem) was 1.06.
With `CCCCc1oc2ccccc2c1C(=O)c1cc(I)c(OCCN(CC)CC)c(I)c1` [Amiodarone] the “log k′w” value [1, 3] was 5.10.
In the case of `CN1[C@@H]2CC[C@H]1C[C@@H](OC(=O)C(CO)c1ccccc1)C2` (stereo partly shown) [Atropine], the “log k′w” value [1] is reported as −0.33.
In the case of `Brc1cnc2ccccc2c1` [3-Bromoquinoline], the “log k′w” value [1, 3] is given as 2.53 and the logDoct [2, 4] is given as 3.03.
In the case of `O=C(CCCN1CCC(O)(c2ccc(Cl)cc2)CC1)c1ccc(F)cc1` [Haloperidol], the “log k′w” value [1, 3] is reported as 2.00 and the chromatographic logD (physchem) is reported as 2.46.
In the case of `COCCc1ccc(OCC(O)CNC(C)C)cc1` (stereo not shown) [Metoprolol], the “log k′w” value [1, 3] is reported as −0.73 and the chromatographic logD (physchem) is reported as -0.62.
In the case of `O=C1Nc2ccc(Cl)cc2C(c2ccccc2Cl)=NC1O` (stereo not shown) [Lorazepam], the “Res (logDoct − ElogDoct)” value ([1]; Table 1) is reported as −0.29, the “log k′w” value [1, 3] is reported as 2.30 and the chromatographic logD (physchem) is reported as 2.8.
For `C[C@]12C=CC(=O)C=C1CC[C@@H]1[C@@H]2[C@@H](O)C[C@@]2(C)[C@H]1CC[C@]2(O)C(=O)CO` [Prednisolone], the “log k′w” value [1, 3] was 1.24 and the chromatographic logD (physchem) was 1.6.
For `C[C@]12C=CC(=O)C=C1CC[C@@H]1[C@@H]2C(=O)C[C@@]2(C)[C@H]1CC[C@]2(O)C(=O)CO` [Prednisone], the “log k′w” value [1, 3] was 0.90 and the chromatographic logD (physchem) was 1.22.
In the case of `CN(C)CCOC(c1ccccc1)c1ccccc1` [Diphenhydramine], the “log k′w” value [1, 3] is reported as 1.04.
For `CCN(CC)CC(=O)Nc1c(C)cccc1C` [Lidocaine], the “log k′w” value [1, 3] was 0.96.
`C[C@]12CCC(=O)C=C1CC[C@@H]1[C@@H]2[C@@H](O)C[C@@]2(C)[C@H]1CC[C@]2(O)C(=O)CO` [Hydrocortisone] gave a chromatographic logD (physchem) of 1.49.
In the case of `CSc1ccc2c(c1)N(CCC1CCCCN1C)c1ccccc1S2` (stereo not shown) [Thioridazine], the “log k′w” value [1, 3] is reported as 2.88 and the chromatographic logD (physchem) is reported as 3.45.
In the case of `Nc1nc(N)c2nc(-c3ccccc3)c(N)nc2n1` [Triamterene], the “log k′w” value [1, 3] is reported as 0.71 and the chromatographic logD (physchem) is reported as 1.01.
